Laboratory results published in patent US20230045421A1 (priority 2018, published 2023).
pEC50: −log10 of the molar value. Like-named read-outs stand apart in the source and are kept apart here.

Tested on: HBV rcDNA
Assay: HepDE19 assay with bDNA quantitation of HBV rcDNA
Type: cell-based, hepatitis B virus
Conditions: for pEC50: read-out: DE-19bDNA EC50
Outline: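 Compounds, top concentration 25 μM in 8-point duplicate series, were applied to Tet-free HepDE19 cultures for 7 days. Branched-DNA quantitation of HBV rcDNA against untreated wells gave EC50 and EC90 by 4-parameter fit. Viability (CC50) came from ATP luminescence on parallel plates incubated 4 days.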

[1] = HepDE19 assay, inhibition of formation of relaxed circular DNA (rcDNA), bDNA quantitation
[2] = HepDE19 assay, inhibition of formation of rcDNA
[3] = Hepatitis B virus, HepDE19, HepDE19 assay, inhibition of formation of rcDNA

CC(c1c[nH]c(=O)c2ccccc12)N(Cc1ccncn1)C(=O)Nc1ccc(F)c(Cl)c1 (single isomer, unassigned) [Compound 322, 3-(3-Chloro-4-fluorophenyl)-1-(1-(1-oxo-1,2-dihydroisoquinolin-4-yl)ethyl)-1-(pyrimidin-4-ylmethyl)urea]
pEC50 [1]: 6.46

CC(c1cnc(OCc2nc[nH]n2)c2cc(F)c(F)cc12)N(C)C(=O)Nc1ccc(F)c(Cl)c1 (single isomer, unassigned) [Compound 362, 1-(1-(1-((1H-1,2,4-Triazol-3-yl)methoxy)-6,7-difluoroisoquinolin-4-yl)ethyl)-3-(3-chloro-4-fluorophenyl)-1-methylurea]
pEC50 [1]: 6.05

COCCCN(C(=O)Nc1ccc(F)c(Cl)c1)C(C)c1cnc(OC)c2ccccc12 (single isomer, unassigned) [Compound 81, 3-(3-Chloro-4-fluorophenyl)-1-(1-(1-methoxyisoquinolin-4-yl)ethyl)-1-(3-methoxypropyl)urea]
pEC50 [2]: 5.07

CCCn1cc(C(C)N(C)C(=O)Nc2ccc(F)c(Cl)c2)c2ccccc2c1=O (single isomer, unassigned) [Compound 186, 3-(3-Chloro-4-fluorophenyl)-1-methyl-1-(1-(1-oxo-2-propyl-1,2-dihydroisoquinolin-4-yl)ethyl)urea]
pEC50 [2]: 5.08

CC(c1cn(CCO)c(=O)c2ccccc12)N(C)C(=O)Nc1ccc(F)c(Cl)c1 (single isomer, unassigned) [Compound 205, 3-(3-Chloro-4-fluorophenyl)-1-(1-(2-(2-hydroxyethyl)-1-oxo-1,2-dihydroisoquinolin-4-yl)ethyl)-1-methylurea]
pEC50 [3]: 6.80

CCN(C(=O)Nc1ccc(F)c(Cl)c1)C(c1cnc(OC)c2ccccc12)C(C)C (single isomer, unassigned) [Compound 44, 3-(3-Chloro-4-fluorophenyl)-1-ethyl-1-(1-(1-methoxyisoquinolin-4-yl)-2-methylpropyl)urea]
pEC50 [3]: 4.60

CC(c1c[nH]c(=O)c2c(F)c(F)ccc12)N(C)C(=O)NCc1ccccc1 (single isomer, unassigned) [Compound 453, 3-Benzyl-1-(1-(7,8-difluoro-1-oxo-1,2-dihydroisoquinolin-4-yl)ethyl)-1-methylurea]
EC50 (Hepatitis B virus, HepDE19, read-out: DE-19bDNA EC50 (μM), HepDE19 assay, inhibition of formation of relaxed circular DNA (rcDNA), bDNA quantitation): 0.29 µM

CC(c1c[nH]c(=O)c2c(F)c(F)ccc12)N(C)C(=O)Nc1ccnc(Cl)c1 (single isomer, unassigned) [Compound 454, 3-(2-Chloropyridin-4-yl)-1-(1-(7,8-difluoro-1-oxo-1,2-dihydroisoquinolin-4-yl)ethyl)-1-methylurea]
pEC50 (Hepatitis B virus, HepDE19, HepDE19 assay, inhibition of formation of relaxed circular DNA (rcDNA), bDNA quantitation): 6.77

CC(c1cnc(N(C)C)c2ccccc12)N(C)C(=O)Nc1ccc(F)c(Cl)c1 (single isomer, unassigned) [Compound 234, 3-(3-Chloro-4-fluorophenyl)-1-(1-(1-(dimethylamino)isoquinolin-4-yl)ethyl)-1-methylurea]
pEC50 [2]: 6.19

CC(c1cnc(OCc2ncn(C)n2)c2ccccc12)N(CCCO)C(=O)Nc1ccc(F)c(Cl)c1 (single isomer, unassigned) [Compound 256, 3-(3-Chloro-4-fluorophenyl)-1-(3-hydroxypropyl)-1-(1-(1-((1-methyl-1H-1,2,4-triazol-3-yl)methoxy)isoquinolin-4-yl)ethyl)urea]
pEC50 [2]: 7.89

Cc1ncc(C(C)N(C)C(=O)Nc2ccc(F)c(Cl)c2)c2ccccc12 (single isomer, unassigned) [Compound 353, 3-(3-Chloro-4-fluorophenyl)-1-methyl-1-(1-(1-methylisoquinolin-4-yl)ethyl)urea]
pEC50 [1]: 6.72

CC(c1c[nH]c(=O)c2c(F)cc(F)cc12)N(CCS(N)(=O)=O)C(=O)Nc1ccc(F)c(Cl)c1 (single isomer, unassigned) [Compound 389, 2-(3-(3-Chloro-4-fluorophenyl)-1-(1-(6,8-difluoro-1-oxo-1,2-dihydroisoquinolin-4-yl)ethyl)ureido) ethane-1-sulfonamide]
pEC50 [1]: 5.48

CC(c1c[nH]c(=O)c2cc(F)c(F)cc12)N(CCCO)C(=O)Nc1ccc(F)cc1 (single isomer, unassigned) [Compound 291, 1-(1-(6,7-Difluoro-1-oxo-1,2-dihydroisoquinolin-4-yl)ethyl)-3-(4-fluorophenyl)-1-(3-hydroxypropyl) urea]
pEC50 [1]: 5.34

CC(NC(=O)Nc1ccc(F)c(Cl)c1)c1c[nH]c(=O)c2ccccc12 (single isomer, unassigned) [Compound 10, 1-(3-Chloro-4-fluorophenyl)-3-(1-(1-oxo-1,2-dihydroisoquinolin-4-yl)ethyl)urea]
pEC50 [3]: 5.47

CC(c1c[nH]c(=O)c2ccccc12)N(Cc1cccnc1)C(=O)Nc1ccc(F)c(Cl)c1 (single isomer, unassigned) [Compound 306, 3-(3-Chloro-4-fluorophenyl)-1-(1-(1-oxo-1,2-dihydroisoquinolin-4-yl)ethyl)-1-(pyridin-3-ylmethyl) urea]
pEC50 [1]: 6.00

CC(c1c[nH]c(=O)c2c(F)c(F)ccc12)N(C)C(=O)Nc1ccc(F)c(C#N)c1 (single isomer, unassigned) [Compound 471, 3-(3-Cyano-4-fluorophenyl)-1-(1-(7,8-difluoro-1-oxo-1,2-dihydroisoquinolin-4-yl)ethyl)-1-methylurea]
pEC50 [1]: 7.70

CC(c1cn(C(C)C)c(=O)c2ccccc12)N(C)C(=O)Nc1ccc(F)c(Cl)c1 (single isomer, unassigned) [Compound 188, 3-(3-Chloro-4-fluorophenyl)-1-(1-(2-isopropyl-1-oxo-1,2-dihydroisoquinolin-4-yl)ethyl)-1-methylurea]
pEC50 [2]: 5.74

CCN(C(=O)Nc1ccc(F)c(Cl)c1)C(C)c1c[nH]c(=O)c2cnccc12 (racemic) [Compound 102, 3-(3-Chloro-4-fluorophenyl)-1-ethyl-1-(1-(1-oxo-1,2-dihydro-2,7-naphthyridin-4-yl)ethyl)urea]
pEC50 [3]: 7.00

CC(c1c[nH]c(=O)c2ccccc12)N(Cc1cccnc1)C(=O)Nc1ccc(F)c(Cl)c1 (single isomer, unassigned) [Compound 307, 3-(3-Chloro-4-fluorophenyl)-1-(1-(1-oxo-1,2-dihydroisoquinolin-4-yl)ethyl)-1-(pyridin-3-ylmethyl) urea]
pEC50 [1]: 4.70

CC(c1cnc(NCCN)c2ccccc12)N(C)C(=O)Nc1ccc(F)c(Cl)c1 (racemic) [Compound 244, 1-(1-(1-((2-aminoethyl)amino)isoquinolin-4-yl)ethyl)-3-(3-chloro-4-fluorophenyl)-1-methylurea]
pEC50 [3]: 5.57

CC(c1c[nH]c(=O)c2ncccc12)N(C)C(=O)Nc1ccc(F)c(Cl)c1 (centres unmarked) [Compound 153, 3-(3-chloro-4-fluorophenyl)-1-methyl-1-(1-(8-oxo-7,8-dihydro-1,7-naphthyridin-5-yl)ethyl)urea]
pEC50 [3]: 6.06

CC(C)CN(C(=O)Nc1ccc(F)c(Cl)c1)C(C)c1cnc(-n2cncn2)c2ccccc12 (single isomer, unassigned) [Compound 345, 1-(1-(1-(1H-1,2,4-triazol-1-yl)isoquinolin-4-yl)ethyl)-3-(3-chloro-4-fluorophenyl)-1-isobutylurea]
pEC50 [1]: 8.02

CCN(C(=O)Nc1ccc(F)c(Cl)c1)C(C)c1cnc(OC)c2ccccc12 (single isomer, unassigned) [Compound 23, 3-(3-Chloro-4-fluorophenyl)-1-ethyl-1-(1-(1-methoxyisoquinolin-4-yl)ethyl)urea]
pEC50 [2]: 6.57
